Twelve compounds from US20230022400A1, “IMMUNOMODULATORS” (Bristol-Myers Squibb Company, priority 2019, published 2023) can be followed below.

The structures appear in SMILES notation. Where a SMILES comes first, the peptide text is derived from it. Bridges are numbered along the chain shown (N, C = ends). [ ]: non-standard residue; d: D form. The star is where a group is joined. Trp(1-CH2CO2Me) = COC(=O)Cn1cc(C[C@H](N)C(=O)O)c2ccccc21; Trp(1-CH2COOH) = N[C@@H](Cc1cn(CC(=O)O)c2ccccc12)C(=O)O; X19 = c1ccc(N2CCN(c3ncnc(*)n3)CC2)cc1; Hyp = O=C(O)[C@@H]1C[C@@H](O)CN1; NMeNle = CCCC[C@H](NC)C(=O)O; X18 = c1ccc(-c2ccnc(*)n2)cc1; NMeA = CN[C@@H](C)C(=O)O; Dab = NCC[C@H](N)C(=O)O; Dap = NC[C@H](N)C(=O)O; X6 = c1ccc2nc(*)cnc2c1; X1 = c1ccc2sc(*)nc2c1; X11 = COc1ccnc(*)n1; X12 = Brc1cnc(*)nc1; X3 = N#Cc1ccc(*)nc1; X15 = c1cnc(*)cn1

For this experiment, the target named is T1, PD-1/PD-L1 interaction (PD-1-Ig / PD-L1-His) (Homo sapiens, UniProt Q9NZQ7).
T1 construct: TVMV protease site (linker) (C); made in house; host or cells: HEK293T cells
Briefly: PD-1/PD-L1 Homogenous Time-Resolved Fluorescence (HTRF) binding assay. Particulars: PD-L1-His 10 nM final, PD-1-Ig 20 nM final; inhibitors pre-incubated with PD-L1-His for 15 m. An excerpt:
The ability of the compounds of formula (I) to bind to PD-L1 was investigated using a PD-1/PD-L1 Homogenous Time-Resolved Fluorescence (HTRF) binding assay.
The interaction of PD-1 and PD-L1 can be assessed using soluble, purified preparations of the extracellular domains of the two proteins. The PD-1 and PD-L1 protein extracellular domains were expressed as fusion proteins with detection tags, for PD-1, the tag was the Fc portion of Immunoglobulin (PD-1-Ig) and for PD-L1 it was the 6 histidine motif (PD-L1-His). All binding studies were performed in an HTRF assay buffer consisting of dPBS supplemented with 0.1% […] bovine serum albumin and 0.05% (v/v) Tween-20. For the h/PD-L1-His binding assay, inhibitors were pre-incubated with PD-L1-His (10 nM final) for 15 m in 4 μl of assay buffer, followed by addition of PD-1-Ig (20 nM final) in 1 μl of assay buffer and further incubation for 15 m. HTRF detection was achieved using europium crypate-labeled anti-Ig (1 nM final) and allophycocyanin (APC) labeled anti-His (20 nM final). Antibodies were diluted in HTRF detection buffer and 5 μl was dispensed on top of the binding reaction. The reaction mixture was allowed to equilibrate for 30 minutes and the resulting signal (665 nm/620 nm ratio) was obtained using an EnVision fluorometer. Additional binding assays were established between the human proteins PD-1-Ig/PD-L2-His (20 & 5 nM, respectively) and CD80-His/PD-L1-Ig (100 & 10 nM, respectively).
Recombinant Proteins: Human PD-1 (25-167) with a C-terminal human Fc domain of immunoglobulin G (Ig) epitope tag [hPD-1 (25-167)-3S-IG] and human PD-L1 (18-239) with a C-terminal His epitope tag [hPD-L1(18-239)-TVMV-His] were expressed in HEK293T cells and purified sequentially by ProteinA affinity chromatography and size exclusion chromatography. Human PD-L2-His and CD80-His was obtained through commercial sources.
Table 1 lists the IC50 values for representative examples of this disclosure measured in the PD-1/PD-L1 Homogenous Time-Resolved Fluorescence (HTRF) binding assay.
In general terms: Time-resolved FRET reads energy transfer from a long-lived donor to a nearby acceptor.

A word on the IC50: it is the midpoint of a concentration-inhibition curve. High values mean lower potency, low ones higher potency.

T1 sequence (Q9NZQ7 18-239): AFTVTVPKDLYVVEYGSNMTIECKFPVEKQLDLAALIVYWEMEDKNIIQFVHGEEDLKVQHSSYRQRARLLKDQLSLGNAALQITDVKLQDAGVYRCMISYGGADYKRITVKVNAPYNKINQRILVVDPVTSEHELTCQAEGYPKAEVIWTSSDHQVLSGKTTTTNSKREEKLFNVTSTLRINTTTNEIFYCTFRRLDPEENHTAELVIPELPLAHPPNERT

As for `CCCC[C@H]1C(=O)N(C)[C@@H](CCCC)C(=O)N[C@@H](CC(C)C)C(=O)N[C@H](C(=O)NCC(N)=O)CSCC(=O)N[C@@H](Cc2ccc(O)cc2)C(=O)N(C)[C@@H](C)C(=O)N[C@@H](CC(N)=O)C(=O)N2CCC[C@H]2C(=O)N[C@@H](CNc2nccc(OC)n2)C(=O)N[C@@H](CC(C)C)C(=O)N2C[C@H](O)C[C@H]2C(=O)N[C@@H](Cc2c[nH]c3ccccc23)C(=O)N[C@@H](CCN)C(=O)N[C@@H](Cc2cn(CC(=O)O)c3ccccc23)C(=O)N1C` [Compound 1001] ({CH2CO}-Y[NMeA]NP[Dap](X11)L[Hyp]W[Dab][Trp(1-CH2COOH)][NMeNle][NMeNle]LCG-NH2; thioether N-14), the IC50 stood at 5.4 nM.

In the case of `CCCC[C@H]1C(=O)N(C)[C@@H](CCCC)C(=O)N[C@@H](CC(C)C)C(=O)N[C@H](C(=O)NCC(N)=O)CSCC(=O)N[C@@H](Cc2ccc(O)cc2)C(=O)N(C)[C@@H](C)C(=O)N[C@@H](CC(N)=O)C(=O)N2CCC[C@H]2C(=O)N[C@@H](CNc2ccc(C#N)cn2)C(=O)N[C@@H](CC(C)C)C(=O)N2C[C@H](O)C[C@H]2C(=O)N[C@@H](Cc2c[nH]c3ccccc23)C(=O)N[C@@H](CCNc2ccc(C#N)cn2)C(=O)N[C@@H](Cc2cn(CC(=O)O)c3ccccc23)C(=O)N1C` [Compound 1002] ({CH2CO}-Y[NMeA]NP[Dap](X3)L[Hyp]W[Dab](X3)[Trp(1-CH2COOH)][NMeNle][NMeNle]LCG-NH2; thioether N-14), the IC50 is 4.5 nM.

`CCCC[C@H]1C(=O)N(C)[C@@H](CCCC)C(=O)N[C@@H](CC(C)C)C(=O)N[C@H](C(=O)NCC(N)=O)CSCC(=O)N[C@@H](Cc2ccc(O)cc2)C(=O)N(C)[C@@H](C)C(=O)N[C@@H](CC(N)=O)C(=O)N2CCC[C@H]2C(=O)N[C@@H](CNc2nccc(-c3ccccc3)n2)C(=O)N[C@@H](CC(C)C)C(=O)N2C[C@H](O)C[C@H]2C(=O)N[C@@H](Cc2c[nH]c3ccccc23)C(=O)N[C@@H](CCNc2nccc(-c3ccccc3)n2)C(=O)N[C@@H](Cc2cn(CC(=O)O)c3ccccc23)C(=O)N1C` [Compound 1003] ({CH2CO}-Y[NMeA]NP[Dap](X18)L[Hyp]W[Dab](X18)[Trp(1-CH2COOH)][NMeNle][NMeNle]LCG-NH2; thioether N-14) gave an IC50 of 8.3 nM.

Consider `CCCC[C@H]1C(=O)N(C)[C@@H](CCCC)C(=O)N[C@@H](CC(C)C)C(=O)N[C@H](C(=O)NCC(N)=O)CSCC(=O)N[C@@H](Cc2ccc(O)cc2)C(=O)N(C)[C@@H](C)C(=O)N[C@@H](CC(N)=O)C(=O)N2CCC[C@H]2C(=O)N[C@@H](CNc2cnccn2)C(=O)N[C@@H](CC(C)C)C(=O)N2C[C@H](O)C[C@H]2C(=O)N[C@@H](Cc2c[nH]c3ccccc23)C(=O)N[C@@H](CCNc2cnccn2)C(=O)N[C@@H](Cc2cn(CC(=O)O)c3ccccc23)C(=O)N1C` [Compound 1004] ({CH2CO}-Y[NMeA]NP[Dap](X15)L[Hyp]W[Dab](X15)[Trp(1-CH2COOH)][NMeNle][NMeNle]LCG-NH2; thioether N-14), for which the IC50 is 5.1 nM.

On to `CCCC[C@H]1C(=O)N(C)[C@@H](CCCC)C(=O)N[C@@H](CC(C)C)C(=O)N[C@H](C(=O)NCC(N)=O)CSCC(=O)N[C@@H](Cc2ccc(O)cc2)C(=O)N(C)[C@@H](C)C(=O)N[C@@H](CC(N)=O)C(=O)N2CCC[C@H]2C(=O)N[C@@H](CNc2cnccn2)C(=O)N[C@@H](CC(C)C)C(=O)N2C[C@H](O)C[C@H]2C(=O)N[C@@H](Cc2c[nH]c3ccccc23)C(=O)N[C@@H](CCN)C(=O)N[C@@H](Cc2cn(CC(=O)O)c3ccccc23)C(=O)N1C` [Compound 1005] ({CH2CO}-Y[NMeA]NP[Dap](X15)L[Hyp]W[Dab][Trp(1-CH2COOH)][NMeNle][NMeNle]LCG-NH2; thioether N-14), for which the IC50 worked out at 11 nM.

`CCCC[C@H]1C(=O)N(C)[C@@H](CCCC)C(=O)N[C@@H](CC(C)C)C(=O)N[C@H](C(=O)NCC(N)=O)CSCC(=O)N[C@@H](Cc2ccc(O)cc2)C(=O)N(C)[C@@H](C)C(=O)N[C@@H](CC(N)=O)C(=O)N2CCC[C@H]2C(=O)N[C@@H](CNc2nccc(-c3ccccc3)n2)C(=O)N[C@@H](CC(C)C)C(=O)N2C[C@H](O)C[C@H]2C(=O)N[C@@H](Cc2c[nH]c3ccccc23)C(=O)N[C@@H](CCN)C(=O)N[C@@H](Cc2cn(CC(=O)O)c3ccccc23)C(=O)N1C` [Compound 1006] ({CH2CO}-Y[NMeA]NP[Dap](X18)L[Hyp]W[Dab][Trp(1-CH2COOH)][NMeNle][NMeNle]LCG-NH2; thioether N-14) had an IC50 of 11 nM.

In turn, `CCCC[C@H]1C(=O)N(C)[C@@H](CCCC)C(=O)N[C@@H](CC(C)C)C(=O)N[C@H](C(=O)NCC(N)=O)CSCC(=O)N[C@@H](Cc2ccc(O)cc2)C(=O)N(C)[C@@H](C)C(=O)N[C@@H](CC(N)=O)C(=O)N2CCC[C@H]2C(=O)N[C@@H](CNc2ncnc(N3CCN(c4ccccc4)CC3)n2)C(=O)N[C@@H](CC(C)C)C(=O)N2C[C@H](O)C[C@H]2C(=O)N[C@@H](Cc2c[nH]c3ccccc23)C(=O)N[C@@H](CCNc2ncnc(N3CCN(c4ccccc4)CC3)n2)C(=O)N[C@@H](Cc2cn(CC(=O)O)c3ccccc23)C(=O)N1C` [Compound 1009] ({CH2CO}-Y[NMeA]NP[Dap](X19)L[Hyp]W[Dab](X19)[Trp(1-CH2COOH)][NMeNle][NMeNle]LCG-NH2; thioether N-14) showed an IC50 of 9.8 nM.

Turning to `CCCC[C@H]1C(=O)N(C)[C@@H](CCCC)C(=O)N[C@@H](CC(C)C)C(=O)N[C@H](C(=O)NCC(N)=O)CSCC(=O)N[C@@H](Cc2ccc(O)cc2)C(=O)N(C)[C@@H](C)C(=O)N[C@@H](CC(N)=O)C(=O)N2CCC[C@H]2C(=O)N[C@@H](CNc2ncc(Br)cn2)C(=O)N[C@@H](CC(C)C)C(=O)N2C[C@H](O)C[C@H]2C(=O)N[C@@H](Cc2c[nH]c3ccccc23)C(=O)N[C@@H](CCNc2ncc(Br)cn2)C(=O)N[C@@H](Cc2cn(CC(=O)O)c3ccccc23)C(=O)N1C` [Compound 1010] ({CH2CO}-Y[NMeA]NP[Dap](X12)L[Hyp]W[Dab](X12)[Trp(1-CH2COOH)][NMeNle][NMeNle]LCG-NH2; thioether N-14), the IC50 was 4.9 nM.

For the compound `CCCC[C@H]1C(=O)N(C)[C@@H](CCCC)C(=O)N[C@@H](CC(C)C)C(=O)N[C@H](C(=O)NCC(N)=O)CSCC(=O)N[C@@H](Cc2ccc(O)cc2)C(=O)N(C)[C@@H](C)C(=O)N[C@@H](CC(N)=O)C(=O)N2CCC[C@H]2C(=O)N[C@@H](CNc2nc3ccccc3s2)C(=O)N[C@@H](CC(C)C)C(=O)N2C[C@H](O)C[C@H]2C(=O)N[C@@H](Cc2c[nH]c3ccccc23)C(=O)N[C@@H](CCN)C(=O)N[C@@H](Cc2cn(CC(=O)O)c3ccccc23)C(=O)N1C` [Compound 11001] ({CH2CO}-Y[NMeA]NP[Dap](X1)L[Hyp]W[Dab][Trp(1-CH2COOH)][NMeNle][NMeNle]LCG-NH2; thioether N-14), the IC50 came to 4 nM.

Regarding `CCCC[C@H]1C(=O)N(C)[C@@H](CCCC)C(=O)N[C@@H](CC(C)C)C(=O)N[C@H](C(=O)NCC(N)=O)CSCC(=O)N[C@@H](Cc2ccc(O)cc2)C(=O)N(C)[C@@H](C)C(=O)N[C@@H](CC(N)=O)C(=O)N2CCC[C@H]2C(=O)N[C@@H](CNc2nc3ccccc3s2)C(=O)N[C@@H](CC(C)C)C(=O)N2C[C@H](O)C[C@H]2C(=O)N[C@@H](Cc2c[nH]c3ccccc23)C(=O)N[C@@H](CCNc2nc3ccccc3s2)C(=O)N[C@@H](Cc2cn(CC(=O)O)c3ccccc23)C(=O)N1C` [Compound 11002] ({CH2CO}-Y[NMeA]NP[Dap](X1)L[Hyp]W[Dab](X1)[Trp(1-CH2COOH)][NMeNle][NMeNle]LCG-NH2; thioether N-14), the IC50 came out at 4.5 nM.

`CCCC[C@H]1C(=O)N(C)[C@@H](CCCC)C(=O)N[C@@H](CC(C)C)C(=O)N[C@H](C(=O)NCC(N)=O)CSCC(=O)N[C@@H](Cc2ccc(O)cc2)C(=O)N(C)[C@@H](C)C(=O)N[C@@H](CC(N)=O)C(=O)N2CCC[C@H]2C(=O)N[C@@H](CNc2cnc3ccccc3n2)C(=O)N[C@@H](CC(C)C)C(=O)N2C[C@H](O)C[C@H]2C(=O)N[C@@H](Cc2c[nH]c3ccccc23)C(=O)N[C@@H](CCN)C(=O)N[C@@H](Cc2cn(CC(=O)O)c3ccccc23)C(=O)N1C` [Compound 11003] ({CH2CO}-Y[NMeA]NP[Dap](X6)L[Hyp]W[Dab][Trp(1-CH2COOH)][NMeNle][NMeNle]LCG-NH2; thioether N-14): the IC50 was determined as 7.1 nM.

With `CCCC[C@H]1C(=O)N(C)[C@@H](CCCC)C(=O)N[C@@H](CC(C)C)C(=O)N[C@H](C(=O)NCC(N)=O)CSCC(=O)N[C@@H](Cc2ccc(O)cc2)C(=O)N(C)[C@@H](C)C(=O)N[C@@H](CC(N)=O)C(=O)N2CCC[C@H]2C(=O)N[C@@H](CNc2nc3ccccc3s2)C(=O)N[C@@H](CC(C)C)C(=O)N2C[C@H](O)C[C@H]2C(=O)N[C@@H](Cc2c[nH]c3ccccc23)C(=O)N[C@@H](CCN)C(=O)N[C@@H](Cc2cn(CC(=O)OC)c3ccccc23)C(=O)N1C` [Compound 11004] ({CH2CO}-Y[NMeA]NP[Dap](X1)L[Hyp]W[Dab][Trp(1-CH2CO2Me)][NMeNle][NMeNle]LCG-NH2; thioether N-14), the IC50 is 5.6 nM.
